# Measurements taken from paper PMC7156458, “Synthetic biology based construction of biological activity-related library of fungal decalin-containing diterpenoid pyrones” (Nature Communications, 2020).
# Target: Aβ42 (Homo sapiens, UniProt P05067)
# Assay: Th-T (thioflavin-T) assay of Aβ42 aggregation
# Type: biochemical
# Conditions: for Th-T assay plate reading, mean of three wells (Supplementary Fig. 47): source data, Ab alone and No Ab as controls
# Aβ42, sequence (P05067 672-713): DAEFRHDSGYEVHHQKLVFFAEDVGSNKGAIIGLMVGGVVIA
structure (smiles),measurement,setting,value
C=C1CCC2C(C)(CC(=O)C=C(C)C)C(O)CCC2(C)C1Cc1c(O)c(C)c(C)oc1=O (centres unmarked) [Compound 7],"Th-T fluorescence, mean of three wells","Aβ42 aggregation time course, reading M117",3.444
same,"Th-T fluorescence, mean of three wells","Aβ42 aggregation time course, reading M118",3.462
same,"Th-T fluorescence, mean of three wells","Aβ42 aggregation time course, reading M119",3.421
same,"Th-T fluorescence, mean of three wells","Aβ42 aggregation time course, reading M120",3.485
same,"Th-T fluorescence, mean of three wells","Aβ42 aggregation time course, reading M121",3.437
same,"Th-T fluorescence, mean of three wells","Aβ42 aggregation time course, reading M122",3.4838
same,"Th-T fluorescence, mean of three wells","Aβ42 aggregation time course, reading M123",3.463
same,"Th-T fluorescence, mean of three wells","Aβ42 aggregation time course, reading M124",3.451
same,"Th-T fluorescence, mean of three wells","Aβ42 aggregation time course, reading M125",3.454
same,"Th-T fluorescence, mean of three wells","Aβ42 aggregation time course, reading M126",3.465
same,"Th-T fluorescence, mean of three wells","Aβ42 aggregation time course, reading M127",3.446
same,"Th-T fluorescence, mean of three wells","Aβ42 aggregation time course, reading M128",3.459
same,"Th-T fluorescence, mean of three wells","Aβ42 aggregation time course, reading M129",3.461
same,"Th-T fluorescence, mean of three wells","Aβ42 aggregation time course, reading M130",3.435
same,"Th-T fluorescence, mean of three wells","Aβ42 aggregation time course, reading M131",3.434
same,"Th-T fluorescence, mean of three wells","Aβ42 aggregation time course, reading M132",3.446
same,"Th-T fluorescence, mean of three wells","Aβ42 aggregation time course, reading M133",3.459
same,"Th-T fluorescence, mean of three wells","Aβ42 aggregation time course, reading M134",3.427
same,"Th-T fluorescence, mean of three wells","Aβ42 aggregation time course, reading M135",3.416
same,"Th-T fluorescence, mean of three wells","Aβ42 aggregation time course, reading M136",3.414
same,"Th-T fluorescence, mean of three wells","Supplementary Fig. 47, reading M137",3.399
same,"Th-T fluorescence, mean of three wells","Supplementary Fig. 47, reading M138",3.412
same,"Th-T fluorescence, mean of three wells","Supplementary Fig. 47, reading M139",3.411
same,"Th-T fluorescence, mean of three wells","Supplementary Fig. 47, reading M140",3.433
same,"Th-T fluorescence, mean of three wells","Supplementary Fig. 47, reading M141",3.413
same,"Th-T fluorescence, mean of three wells","Supplementary Fig. 47, reading M142",3.437
same,"Th-T fluorescence, mean of three wells","Supplementary Fig. 47, reading M143",3.394
same,"Th-T fluorescence, mean of three wells","Supplementary Fig. 47, reading M144",3.432
same,"Th-T fluorescence, mean of three wells","Supplementary Fig. 47, reading M145",3.431
same,"Th-T fluorescence, mean of three wells","Supplementary Fig. 47 source data, measurement M37 of time course",3.548
same,"Th-T fluorescence, mean of three wells","Supplementary Fig. 47 source data, measurement M38 of time course",3.519
same,"Th-T fluorescence, mean of three wells","Supplementary Fig. 47 source data, measurement M39 of time course",3.507
same,"Th-T fluorescence, mean of three wells","Supplementary Fig. 47 source data, measurement M40 of time course",3.528
same,"Th-T fluorescence, mean of three wells","Supplementary Fig. 47 source data, measurement M41 of time course",3.5472
same,"Th-T fluorescence, mean of three wells","Supplementary Fig. 47 source data, measurement M42 of time course",3.534
same,"Th-T fluorescence, mean of three wells","Supplementary Fig. 47 source data, measurement M43 of time course",3.54
same,"Th-T fluorescence, mean of three wells","Supplementary Fig. 47 source data, measurement M44 of time course",3.555
same,"Th-T fluorescence, mean of three wells","Supplementary Fig. 47 source data, measurement M45 of time course",3.57
same,"Th-T fluorescence, mean of three wells","Supplementary Fig. 47 source data, measurement M46 of time course",3.557
same,"Th-T fluorescence, mean of three wells","Supplementary Fig. 47 source data, measurement M47 of time course",3.602
same,"Th-T fluorescence, mean of three wells","Supplementary Fig. 47 source data, measurement M48 of time course",3.575
same,"Th-T fluorescence, mean of three wells","Supplementary Fig. 47 source data, measurement M49 of time course",3.594
same,"Th-T fluorescence, mean of three wells","Supplementary Fig. 47 source data, measurement M50 of time course",3.623
same,"Th-T fluorescence, mean of three wells","Supplementary Fig. 47 source data, measurement M51 of time course",3.626
same,"Th-T fluorescence, mean of three wells","Supplementary Fig. 47 source data, measurement M52 of time course",3.602
same,"Th-T fluorescence, mean of three wells","Supplementary Fig. 47 source data, measurement M53 of time course",3.622
same,"Th-T fluorescence, mean of three wells","Supplementary Fig. 47 source data, measurement M54 of time course",3.589
same,"Th-T fluorescence, mean of three wells","Supplementary Fig. 47 source data, measurement M55 of time course",3.592
same,"Th-T fluorescence, mean of three wells","Supplementary Fig. 47 source data, measurement M56 of time course",3.6022
same,"Th-T assay plate reading, mean of three wells (Supplementary Fig. 47)",measurement M1,0.291
same,"Th-T assay plate reading, mean of three wells (Supplementary Fig. 47)",measurement M2,0.3102
same,"Th-T assay plate reading, mean of three wells (Supplementary Fig. 47)",measurement M3,0.3462
same,"Th-T assay plate reading, mean of three wells (Supplementary Fig. 47)",measurement M4,0.3847
same,"Th-T assay plate reading, mean of three wells (Supplementary Fig. 47)",measurement M5,0.4026
same,"Th-T assay plate reading, mean of three wells (Supplementary Fig. 47)",measurement M6,0.4778
same,"Th-T assay plate reading, mean of three wells (Supplementary Fig. 47)",measurement M7,0.5127
same,"Th-T assay plate reading, mean of three wells (Supplementary Fig. 47)",measurement M8,0.5767
same,"Th-T assay plate reading, mean of three wells (Supplementary Fig. 47)",measurement M9,0.6534
same,"Th-T assay plate reading, mean of three wells (Supplementary Fig. 47)",measurement M10,0.7067
same,"Th-T assay plate reading, mean of three wells (Supplementary Fig. 47)",measurement M11,0.7325
same,"Th-T assay plate reading, mean of three wells (Supplementary Fig. 47)",measurement M12,0.7635
same,"Th-T assay plate reading, mean of three wells (Supplementary Fig. 47)",measurement M13,0.7892
same,"Th-T assay plate reading, mean of three wells (Supplementary Fig. 47)",measurement M14,0.8105
same,"Th-T assay plate reading, mean of three wells (Supplementary Fig. 47)",measurement M15,0.8372
same,"Th-T assay plate reading, mean of three wells (Supplementary Fig. 47)",measurement M16,0.8682
same,"Th-T fluorescence, mean of three wells","reading M17, Supplementary Fig. 47 source data",0.9169
same,"Th-T fluorescence, mean of three wells","reading M18, Supplementary Fig. 47 source data",0.9995
same,"Th-T fluorescence, mean of three wells","reading M19, Supplementary Fig. 47 source data",1.135
same,"Th-T fluorescence, mean of three wells","reading M20, Supplementary Fig. 47 source data",1.37
same,"Th-T fluorescence, mean of three wells","reading M21, Supplementary Fig. 47 source data",1.709
same,"Th-T fluorescence, mean of three wells","reading M22, Supplementary Fig. 47 source data",2.121
same,"Th-T fluorescence, mean of three wells","reading M23, Supplementary Fig. 47 source data",2.518
same,"Th-T fluorescence, mean of three wells","reading M24, Supplementary Fig. 47 source data",2.859
same,"Th-T fluorescence, mean of three wells","reading M25, Supplementary Fig. 47 source data",3.1034
same,"Th-T fluorescence, mean of three wells","reading M26, Supplementary Fig. 47 source data",3.2675
same,"Th-T fluorescence, mean of three wells","reading M27, Supplementary Fig. 47 source data",3.339
same,"Th-T fluorescence, mean of three wells","reading M28, Supplementary Fig. 47 source data",3.364
same,"Th-T fluorescence, mean of three wells","reading M29, Supplementary Fig. 47 source data",3.378
same,"Th-T fluorescence, mean of three wells","reading M30, Supplementary Fig. 47 source data",3.446
same,"Th-T fluorescence, mean of three wells","reading M31, Supplementary Fig. 47 source data",3.431
same,"Th-T fluorescence, mean of three wells","reading M32, Supplementary Fig. 47 source data",3.47
same,"Th-T fluorescence, mean of three wells","reading M33, Supplementary Fig. 47 source data",3.448
same,"Th-T fluorescence, mean of three wells","reading M34, Supplementary Fig. 47 source data",3.489
same,"Th-T fluorescence, mean of three wells","reading M35, Supplementary Fig. 47 source data",3.5187
same,"Th-T fluorescence, mean of three wells","reading M36, Supplementary Fig. 47 source data",3.503
same,"Th-T fluorescence, mean of three wells","time course, reading M57",3.603
same,"Th-T fluorescence, mean of three wells","time course, reading M58",3.607
same,"Th-T fluorescence, mean of three wells","time course, reading M59",3.578
same,"Th-T fluorescence, mean of three wells","time course, reading M60",3.583
same,"Th-T fluorescence, mean of three wells","time course, reading M61",3.605
same,"Th-T fluorescence, mean of three wells","time course, reading M62",3.61
same,"Th-T fluorescence, mean of three wells","time course, reading M63",3.6015
same,"Th-T fluorescence, mean of three wells","time course, reading M64",3.57
same,"Th-T fluorescence, mean of three wells","time course, reading M65",3.572
same,"Th-T fluorescence, mean of three wells","time course, reading M66",3.5992
same,"Th-T fluorescence, mean of three wells","time course, reading M67",3.63
same,"Th-T fluorescence, mean of three wells","time-course reading M97, Supplementary Fig. 47 source data",3.5286
same,"Th-T fluorescence, mean of three wells","time-course reading M98, Supplementary Fig. 47 source data",3.531
same,"Th-T fluorescence, mean of three wells","time-course reading M99, Supplementary Fig. 47 source data",3.498
same,"Th-T fluorescence, mean of three wells","time-course reading M100, Supplementary Fig. 47 source data",3.513
same,"Th-T fluorescence, mean of three wells","time-course reading M101, Supplementary Fig. 47 source data",3.502
same,"Th-T fluorescence, mean of three wells","time-course reading M102, Supplementary Fig. 47 source data",3.488
same,"Th-T fluorescence, mean of three wells","time-course reading M103, Supplementary Fig. 47 source data",3.486
same,"Th-T fluorescence, mean of three wells","time-course reading M104, Supplementary Fig. 47 source data",3.491
same,"Th-T fluorescence, mean of three wells","time-course reading M105, Supplementary Fig. 47 source data",3.477
same,"Th-T fluorescence, mean of three wells","time-course reading M106, Supplementary Fig. 47 source data",3.476
same,"Th-T fluorescence, mean of three wells","time-course reading M107, Supplementary Fig. 47 source data",3.493
same,"Th-T fluorescence, mean of three wells","time-course reading M108, Supplementary Fig. 47 source data",3.51
same,"Th-T fluorescence, mean of three wells","time-course reading M109, Supplementary Fig. 47 source data",3.4898
same,"Th-T fluorescence, mean of three wells","time-course reading M110, Supplementary Fig. 47 source data",3.516
same,"Th-T fluorescence, mean of three wells","time-course reading M111, Supplementary Fig. 47 source data",3.513
same,"Th-T fluorescence, mean of three wells","time-course reading M112, Supplementary Fig. 47 source data",3.526
same,"Th-T fluorescence, mean of three wells","time-course reading M113, Supplementary Fig. 47 source data",3.459
same,"Th-T fluorescence, mean of three wells","time-course reading M114, Supplementary Fig. 47 source data",3.543
same,"Th-T fluorescence, mean of three wells","time-course reading M115, Supplementary Fig. 47 source data",3.464
same,"Th-T fluorescence, mean of three wells","time-course reading M116, Supplementary Fig. 47 source data",3.458
